This note sets out measurements from patent US10227351B2, “Salt and polymorphic forms of (3R,4S)-L-((4-amino-5H-pyrrolo[3,2,-D]pyrimidin-7-yl)methyl)-4(methylthiomethyl)pyrodin-3-ol(MTDIA)” (VICTORIA LINK LIMITED, priority 2012, dated 2019).

The data set in a line: Stated properties of the phosphate salt form (no method described). The format is physicochemical. To be noted: comparator not stated in that sentence, no data given.

Molecules are shown by their SMILES.

Take `CSC[C@H]1CN(Cc2c[nH]c3c(N)ncnc23)C[C@@H]1O` [(3R,4S)-1-((4-amino-5H-pyrrolo[3,2-d]pyrimidin-7-yl)methyl)-4-(methylthiomethyl)pyrrolidin-3-ol phosphate]: the solubility result is given as “improved” and the stability result is “improved”.
